Laboratory results taken from PMC6094102 (Proceedings of the National Academy of Sciences of the …, 2018).
Like-named read-outs stand apart in the source and are kept apart here. Each block holds one molecule with its values, some of them ahead of it.

What was measured:
MM.1S.BR cells = assay: Cell viability of bortezomib-resistant myeloma cells; type: cell-based
RPMI8226.BR cells = assay: as above; type: cell-based
[1] = system: 26S proteasome in MDA-MB-231 cells; assay: Proteasome activity in total cell lysates, Suc-LLVY-AMC; type: cell-based; settings: 1 h
[2] = system: multiple myeloma cell lines; assay: Caspase 3/7 activity; type: cell-based; settings: multiple myeloma cell lysates, 16 h
DYRK2 [3] = molecular target: T1, DYRK2 (Homo sapiens, UniProt Q92630); assay: DYRK2 kinase assay, IC50 determination; type: biochemical; settings: 0.025 mM, 0.1 mM or 2 mM ATP
T1 sequence (Q92630 1-601): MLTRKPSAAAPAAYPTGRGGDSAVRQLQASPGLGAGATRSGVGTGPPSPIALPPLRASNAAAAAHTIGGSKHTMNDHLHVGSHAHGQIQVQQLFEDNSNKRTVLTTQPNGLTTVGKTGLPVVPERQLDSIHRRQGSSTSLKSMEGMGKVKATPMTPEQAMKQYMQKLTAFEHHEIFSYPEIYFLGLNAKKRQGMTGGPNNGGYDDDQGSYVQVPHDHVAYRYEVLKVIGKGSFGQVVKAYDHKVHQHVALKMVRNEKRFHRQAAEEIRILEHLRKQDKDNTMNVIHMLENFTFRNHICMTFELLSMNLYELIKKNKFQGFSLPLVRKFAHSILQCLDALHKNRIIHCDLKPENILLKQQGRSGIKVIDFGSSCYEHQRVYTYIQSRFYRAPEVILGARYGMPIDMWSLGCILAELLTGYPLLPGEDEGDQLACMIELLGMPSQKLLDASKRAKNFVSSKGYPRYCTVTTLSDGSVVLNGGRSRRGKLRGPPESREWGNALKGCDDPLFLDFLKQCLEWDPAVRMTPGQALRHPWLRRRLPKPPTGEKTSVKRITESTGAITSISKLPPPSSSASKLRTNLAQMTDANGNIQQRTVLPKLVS

MDA-MB-231 cells [4] = assay: Cell proliferation by cell counting; type: cell-based; settings: 3 µM
5TGM1-GFP cells = assay: Cell proliferation by cell counting; type: cell-based; settings: 1 µM, 5 days
26S proteasome = assay: Affinity-purified 26S proteasome, bodipy-casein degradation in vitro; type: biochemical, human; settings: 10 μM
[5] = system: 26S proteasome in HaCaT cells; assay: Proteasome activity in total cell lysates, Suc-LLVY-AMC; type: cell-based; settings: 10 μM, 1 h
Hs578T cells = assay: Matrigel transwell invasion assay; type: cell-based; settings: 5 μM, 24 h
GSK3β [6] = molecular target: T2, GSK3β (Homo sapiens, UniProt P49841); settings: read-out: IC50 GSK3β; cited from earlier work
DYRK2 [7] = molecular target: T1, DYRK2; assay: pT25 RPT3 phosphorylation in HEK293T cells stably expressing FLAG-DYRK2; type: cell-based
[8] = system: MDA-MB-231 xenograft tumors; assay: MDA-MB-231 tumor xenograft in NSG mice; type: in vivo
DYRK3 = molecular target: T3, DYRK3 (Homo sapiens, UniProt O43781); assay: DYRK3 kinase assay, IC50 determination
T3 sequence (O43781 1-588): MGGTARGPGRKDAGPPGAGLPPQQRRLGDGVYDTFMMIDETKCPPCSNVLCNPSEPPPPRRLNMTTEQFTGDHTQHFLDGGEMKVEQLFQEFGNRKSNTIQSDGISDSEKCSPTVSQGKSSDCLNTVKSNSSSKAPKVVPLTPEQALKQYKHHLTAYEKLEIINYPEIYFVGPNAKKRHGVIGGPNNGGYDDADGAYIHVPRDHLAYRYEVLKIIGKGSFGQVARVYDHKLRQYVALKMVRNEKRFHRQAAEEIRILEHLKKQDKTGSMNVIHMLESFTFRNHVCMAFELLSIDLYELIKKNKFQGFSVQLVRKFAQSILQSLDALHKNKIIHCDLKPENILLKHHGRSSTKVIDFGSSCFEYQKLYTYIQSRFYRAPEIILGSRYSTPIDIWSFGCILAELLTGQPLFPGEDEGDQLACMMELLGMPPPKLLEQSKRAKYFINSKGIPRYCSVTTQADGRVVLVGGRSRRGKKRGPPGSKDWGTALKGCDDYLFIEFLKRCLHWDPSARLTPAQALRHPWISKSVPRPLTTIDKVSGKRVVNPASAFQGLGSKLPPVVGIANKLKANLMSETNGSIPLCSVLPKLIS

GSK3β [9] = molecular target: T2, GSK3β; assay: GSK3β kinase assay, IC50 determination; type: biochemical
[10] = system: UBL-YFP-PEST in HEK293T cells; assay: UBL-YFP-PEST reporter degradation; type: cell-based; settings: 10 μM, 1 h pretreatment, CHX 2 h
MDA-MB-231 cells [11] = assay: Matrigel transwell invasion assay; type: cell-based; settings: MDA-MB-231, 5 μM, 24 h

T2 sequence (P49841 whole entry): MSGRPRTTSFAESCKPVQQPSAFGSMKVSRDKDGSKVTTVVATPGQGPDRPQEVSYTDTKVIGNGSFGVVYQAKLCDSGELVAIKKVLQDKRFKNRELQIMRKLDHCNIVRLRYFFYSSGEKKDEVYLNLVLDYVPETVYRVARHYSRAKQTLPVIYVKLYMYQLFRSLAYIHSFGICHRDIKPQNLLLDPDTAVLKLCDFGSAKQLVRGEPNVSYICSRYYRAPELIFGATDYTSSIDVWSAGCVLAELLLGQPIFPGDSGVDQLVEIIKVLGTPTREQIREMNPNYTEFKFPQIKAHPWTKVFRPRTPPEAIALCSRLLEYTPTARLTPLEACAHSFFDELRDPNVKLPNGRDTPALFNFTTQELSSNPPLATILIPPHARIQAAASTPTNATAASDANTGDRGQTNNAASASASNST

Structure (SMILES): CC(C)C[C@H](NC(=O)[C@H](Cc1ccccc1)NC(=O)c1cnccn1)B(O)O [bortezomib]
resistance to bortezomib relative to bortezomib-sensitive cells (MM.1S.BR cells; MM.1S.BR vs MM.1S): 20- to 100 fold
resistance to bortezomib relative to bortezomib-sensitive cells (RPMI8226.BR cells; RPMI8226.BR vs RPMI8226): 20- to 100 fold

effect of higher concentrations of ATP on the IC50 for DYRK2 (DYRK2 [3]): modest effect
concentration at which curcumin inhibits DYRK2 in cells (DYRK2 [7]): 1 to 10 µM
inhibitor concentration of maximal suppression of pT25 RPT3 phosphorylation (DYRK2 [7]; 0.5 h): 3–10 μM
IC50 (DYRK3): 20 nM
IC50 (GSK3β [9]): > 3000 nM
Structure (SMILES): COc1cc(/C=C/C(=O)CC(=O)/C=C/c2ccc(O)c(OC)c2)ccc1O [curcumin]
proteasome activity with curcumin treatment in DYRK2-null cells ([1]; DYRK2-null MDA-MB-231, 10 μM): no further decrease of proteasome activity
decrease of proteasome activity toward Suc-LLVY-AMC ([1]; MDA-MB-231 parental, 10 μM): 25–40%
caspase3/7 activity [2]: significant increase
cell proliferation in DYRK2 KO cells (MDA-MB-231 cells [4]; MDA-MB-231 DYRK2 KO): did not exhibit a further decrease in cell proliferation
rate of cell proliferation compared with DMSO-treated controls (MDA-MB-231 cells [4]; MDA-MB-231 WT, 5 days): markedly slower rate of cell proliferation
rate of cell proliferation compared with DMSO-treated controls (5TGM1-GFP cells): markedly slower rate of cell proliferation
effect on activity of affinity-purified proteasome to degrade BODIPY-casein (26S proteasome): no significant effect
proteasome activity with curcumin treatment in DYRK2-null cells ([5]; DYRK2-null HaCaT): no further decrease of proteasome activity
decrease of proteasome activity toward Suc-LLVY-AMC ([5]; HaCaT parental): 25–40%
cell invasion, 3D matrigel invasion assay (Hs578T cells): largely blocked
IC50 (GSK3β [6]): 66 nM
Ki-67 staining in xenograft tumors ([8]; 300 mg/kg i.p.): greatly attenuated
tumor burden ([8]; 300 mg/kg i.p. every alternate day, after 2 wk of treatment, NSG mice): significantly reduced tumor burden
reduction of proteasome activity in curcumin-treated mouse tumors ([8]; 300 mg/kg i.p., whole-tumor lysates, Suc-LLVY-AMC): 30%
cytotoxicity versus bortezomib-sensitive WT counterpart (MM.1S.BR cells; MM.1S.BR, 10 μM, 24 h): comparable cytotoxicity
cytotoxicity versus bortezomib-sensitive WT counterpart (RPMI8226.BR cells; RPMI8226.BR, 10 μM, 24 h): comparable cytotoxicity
UBL-YFP-PEST reporter protein degradation [10]: stabilized
cell invasion, 3D matrigel invasion assay (MDA-MB-231 cells [11]): largely blocked
